Reference: patent US20240299269A1, “HYDROXY ACIDS FOR SCALP AND HAIR IN PERSONAL CARE COMPOSITIONS” (The Procter & Gamble Company, priority 2023, published 2024)

Assays:
[1] = calcium binding constant; cited from earlier work
[2] = octanol/water; cited from earlier work
[3] = In vitro calcium chelation screening of weak acids (octanol/water, ICP-OES); type: physicochemical; details: for % Calcium in Water Phase: 3% hydroxy acid in water, pH approximately 3, 1000 ppm CaCO3 in octanol, vortexed 2 minutes, 2 hours
Method: A high throughput in-vitro screening method is developed to help identify lead acids that could function as calcium chelators. The intent of the method is to mimic the lipid matrix of the scalp and to quantify the amount of calcium that could be extracted from that matrix. […] Equal parts of the lipid and water phases are added to a conical vial and vortexed for 2 minutes. The vials are left to sit for 2 hours and then the lower water phase is extracted from the concial vial and submitted for Calcium analysis via ICP-OES. […] [formula]

| SMILES | logK_1 [1] | logK_3 [1] | LogP [2] | % Calcium in Water Phase [3] | calcium chelation ability ([3]; among hydroxy acids screened) |
| --- | --- | --- | --- | --- | --- |
| O=C(O)CC(O)(CC(=O)O)C(=O)O [Citric Acid] | 1.100 | 4.680 | – | – | – |
| O=C(O)[C@H](O)[C@@H](O)[C@H](O)[C@H](O)CO [Gluconic Acid] | 1.880 | – | −1.870 | – | – |
| O=C(O)CO [Glycolic Acid] | 1.590 | – | −1.050 | – | – |
| CC(O)C(=O)O (stereo not drawn) [Lactic Acid] | 1.450 | – | – | 78% | – |
| O=C(O)c1ccccc1O [Salicylic Acid] | 1.100 | – | – | 29% | lower calcium chelation ability |
| O=C(O)C(O)C(O)C(=O)O (stereo not drawn) [Tartaric Acid] | – | – | −0.760 | – | – |
